Drawing on patent US20250282799A1, “SUBSTITUTED PYRIDO[4,3-d]PYRIMIDINES AS KRAS MODULATORS” (Alterome Therapeutics, Inc., priority 2023, published 2025), this text covers IC50 for 18 molecules.

Molecules are shown by their SMILES.

In general, IC50 refers to the concentration at which inhibition is half-maximal.

This test has as its system KRAS G12V dependent lung adenocarcinoma cell line, NCI-H441. In words: Cellular pERK (Thr202/Tyr204) FRET/HTRF assay. It is filed as cell-based. The conditions noted are these: Homo sapiens. The procedure, abridged: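 Using a mix-and-read HTRF kit, phospho-ERK (Thr202/Tyr204) was detected in NCI-H441 lysates following 1 hr compound incubation at 37 °C, 5% CO2. Cells had been seeded overnight beforehand, and IC50 was derived by curve fitting.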

Setting [1] is: NCI-H441, cellular pERK (Thr202/Tyr204) HTRF, NCI-H441 cells.
[2] abbreviates: NCI-H441, cellular pERK HTRF, NCI-H441 (KRAS G12V) cells.

`[2H]C([2H])(F)Oc1c(F)ccc2cccc(-c3ncc4c(N5CCCC[C@H]6[C@H](F)[C@H]65)nc(OC[C@]56CC(=C(F)F)CN5CCC65CC5)nc4c3F)c12` [Example 413, (R)-6′-(difluoromethylene)-7a′-(((8-fluoro-7-(7-fluoro-8-(fluoromethoxy-d2)naphthalen-1-yl)-4-((1S,7R,8S)-8-fluoro-2-azabicyclo[5.1.0]octan-2-yl)pyrido[4,3-d]pyrimidin-2-yl)oxy)methyl)hexahydrospiro [cyclopropane-1,1′-pyrrolizine]] yielded an IC50 under setting [1] of 50 to 500 nM. As to `C#Cc1c(F)ccc2cc(N)cc(-c3ncc4c(N5CCOC[C@H]6[C@H](F)[C@H]65)nc(OC[C@]56C[C@@H](F)CN5CCC6=O)nc4c3F)c12` [Example 414, (6R,7aS)-7a-(((7-(3-amino-8-ethynyl-7-fluoronaphthalen-1-yl)-8-fluoro-4-((1S,7S,8S)-8-fluoro-5-oxa-2-azabicyclo[5.1.0]octan-2-yl)pyrido[4,3-d]pyrimidin-2-yl)oxy)methyl)-6-fluorohexahydro-1H-pyrrolizin-1-one], under setting [1], the IC50 was < 50 nM. The molecule `[2H]C([2H])(Oc1nc(N2CCOC[C@H]3[C@H](F)[C@H]32)c2cc(C(F)(F)F)c(-c3cccc4ccccc34)c(F)c2n1)[C@@]12CCCN1C[C@H](F)C2` [Example 415, (1S,7S,8S)-8-fluoro-2-(8-fluoro-2-(((2R,7aS)-2-fluorotetrahydro-1H-pyrrolizin-7a(5H)-yl)methoxy-d2)-7-(naphthalen-1-yl)-6-(trifluoromethyl)quinazolin-4-yl)-5-oxa-2-azabicyclo[5.1.0]octane] registered an IC50 under setting [1] of 500 to 10000 nM.

For `[2H]C([2H])(Oc1nc(N2CCCC[C@H]3[C@H](F)[C@H]32)c2cnc(-c3cc(N)cc4ccc(Cl)c(C#C)c34)c(F)c2n1)[C@@]12CCCN1[C@H](C)[C@H](F)C2` [Example 416, 6-Chloro-5-ethynyl-4-(8-fluoro-2-(((2R,3R,7aS)-2-fluoro-3-methyltetrahydro-1H-pyrrolizin-7a(5H)-yl)methoxy-d2)-4-((1S,7R,8S)-8-fluoro-2-azabicyclo[5.1.0]octan-2-yl)pyrido[4,3-d]pyrimidin-7-yl)naphthalen-2-amine], the IC50 under setting [1] is < 50 nM. Still for that read-out and setting: to `[2H]C([2H])(Oc1nc(N2CCCC[C@H]3[C@H](F)[C@H]32)c2cnc(-c3cc(N)cc4ccc(C)c(C#C)c34)c(F)c2n1)[C@@]12CCCN1[C@H](C)[C@H](F)C2` [Example 417, 5-Ethynyl-4-(8-fluoro-2-(((2R,3R,7aS)-2-fluoro-3-methyltetrahydro-1H-pyrrolizin-7a(5H)-yl)methoxy-d2)-4-((1S,7R,8S)-8-fluoro-2-azabicyclo[5.1.0]octan-2-yl)pyrido[4,3-d]pyrimidin-7-yl)-6-methylnaphthalen-2-amine] belongs < 50 nM; to `[2H]C([2H])(Oc1nc(N2CCOC[C@H]3[C@H](F)[C@H]32)c2cc(C#N)c(-c3cc(N)cc4ccc(F)c(C#C)c34)c(C)c2n1)[C@@]12CCCN1C[C@H](F)C2` [Example 422, 7-(3-amino-8-ethynyl-7-fluoronaphthalen-1-yl)-4-((1S,7S,8S)-8-fluoro-5-oxa-2-azabicyclo[5.1.0]octan-2-yl)-2-(((2R,7aS)-2-fluorotetrahydro-1H-pyrrolizin-7a(5H)-yl)methoxy-d2)-8-methylquinazoline-6-carbonitrile], < 50 nM; to `C#Cc1c(F)ccc2cccc(-c3ncc4c(N5CCCC[C@H]6[C@H](F)[C@H]65)nc(OC[C@]56CC(=C)CN5CCC65CC5)nc4c3F)c12` [Example 423, (R)-7a′-(((7-(8-Ethynyl-7-fluoronaphthalen-1-yl)-8-fluoro-4-((1S,7R,8S)-8-fluoro-2-azabicyclo[5.1.0]octan-2-yl)pyrido[4,3-d]pyrimidin-2-yl)oxy)methyl)-6′-methylenehexahydrospiro[cyclopropane-1,1′-pyrrolizine]], < 50 nM. Still for that read-out and setting: the figure for `C=C1CN2CCC3(CC3)[C@@]2(COc2nc(N3CCCC[C@H]4[C@H](F)[C@H]43)c3cnc(-c4cc(N)cc(Cl)c4C(F)(F)F)c(F)c3n2)C1` [Example 424, 3-chloro-5-(8-fluoro-4-((1S,7R,8S)-8-fluoro-2-azabicyclo[5.1.0]octan-2-yl)-2-(((R)-6′-methylenetetrahydrospiro[cyclopropane-1,1′-pyrrolizin]-7a′(5′H)-yl)methoxy)pyrido[4,3-d]pyrimidin-7-yl)-4-(trifluoromethyl)aniline] is < 50 nM; for `C#Cc1c(F)ccc2cc(N)cc(-c3ncc4c(N5CCOC[C@H]6[C@H](F)[C@H]65)nc(OC[C@@]56CCCN5CC(=C)C6)nc4c3C)c12` [Example 425, 5-ethynyl-6-fluoro-4-(4-((1S,7S,8S)-8-fluoro-5-oxa-2-azabicyclo[5.1.0]octan-2-yl)-8-methyl-2-(((S)-2-methylenetetrahydro-1H-pyrrolizin-7a(5H)-yl)methoxy)pyrido[4,3-d]pyrimidin-7-yl)naphthalen-2-amine] it is < 50 nM.

Turning to `C#Cc1c(F)ccc2cc(N)cc(-c3ncc4c(N5CCOC[C@H]6[C@H](F)[C@H]65)nc(OC[C@@]56CCCN5C/C(=C/F)C6)nc4c3C)c12` [Example 426, 5-ethynyl-6-fluoro-4-(4-((1S,7S,8S)-8-fluoro-5-oxa-2-azabicyclo[5.1.0]octan-2-yl)-2-(((S,E)-2-(fluoromethylene)tetrahydro-1H-pyrrolizin-7a(5H)-yl)methoxy)-8-methylpyrido[4,3-d]pyrimidin-7-yl)naphthalen-2-amine], the IC50 under setting [1] was < 50 nM. Same read-out and setting: to `C#Cc1c(F)ccc2cc(N)cc(-c3ncc4c(N5CCOC[C@H]6[C@H](F)[C@H]65)nc(OC[C@@]56CCCN5C/C(=C\F)C6)nc4c3C)c12` [Example 427, 5-ethynyl-6-fluoro-4-(4-((1S,7S,8S)-8-fluoro-5-oxa-2-azabicyclo[5.1.0]octan-2-yl)-2-(((S,Z)-2-(fluoromethylene)tetrahydro-1H-pyrrolizin-7a(5H)-yl)methoxy)-8-methylpyrido[4,3-d]pyrimidin-7-yl)naphthalen-2-amine] belongs < 50 nM. Still for that read-out and setting: the figure for `C#Cc1c(F)ccc2cc(N)cc(-c3ncc4c(N5CCOC[C@H]6[C@H](F)[C@H]65)nc(OC[C@@]56CCCN5CC(=C(F)F)C6)nc4c3C)c12` [Example 428, 4-(2-(((S)-2-(difluoromethylene)tetrahydro-1H-pyrrolizin-7a(5H)-yl)methoxy)-4-((1S,7S,8S)-8-fluoro-5-oxa-2-azabicyclo[5.1.0]octan-2-yl)-8-methylpyrido[4,3-d]pyrimidin-7-yl)-5-ethynyl-6-fluoronaphthalen-2-amine] is < 50 nM; for `C#Cc1c(F)ccc2cc(N)cc(-c3ncc4c(N5CCOC[C@H]6[C@H](F)[C@H]65)nc(OC[C@]56CC(=C)CN5CCC65CC5)nc4c3C)c12` [Example 429, 5-ethynyl-6-fluoro-4-(4-((1S,7S,8S)-8-fluoro-5-oxa-2-azabicyclo[5.1.0]octan-2-yl)-8-methyl-2-(((R)-6′-methylenetetrahydrospiro[cyclopropane-1,1′-pyrrolizin]-7a′(5′H)-yl)methoxy)pyrido[4,3-d]pyrimidin-7-yl)naphthalen-2-amine] it is < 50 nM; for `C#Cc1c(F)ccc2cc(N)cc(-c3ncc4c(N5CCOC[C@H]6[C@H](F)[C@H]65)nc(OC[C@]56C/C(=C\F)CN5CCC65CC5)nc4c3C)c12` [Example 430, 5-ethynyl-6-fluoro-4-(4-((1S,7S,8S)-8-fluoro-5-oxa-2-azabicyclo[5.1.0]octan-2-yl)-2-(((R,E)-6-(fluoromethylene)tetrahydrospiro[cyclopropane-1,1′-pyrrolizin]-7a′(5′H)-yl)methoxy)-8-methylpyrido[4,3-d]pyrimidin-7-yl)naphthalen-2-amine] it is < 50 nM. On the same count and under the same terms, the figure for `C#Cc1c(F)ccc2cc(N)cc(-c3ncc4c(N5CCOC[C@H]6[C@H](F)[C@H]65)nc(OC[C@]56C/C(=C/F)CN5CCC65CC5)nc4c3C)c12` [Example 431, 5-Ethynyl-6-fluoro-4-(4-((1S,7S,8S)-8-fluoro-5-oxa-2-azabicyclo[5.1.0]octan-2-yl)-2-(((R,Z)-6′-(fluoromethylene)tetrahydrospiro[cyclopropane-1,1′-pyrrolizin]-7a′(5′H)-yl)methoxy)-8-methylpyrido[4,3-d]pyrimidin-7-yl)naphthalen-2-amine] is < 50 nM. On to `[2H]C([2H])(Oc1nc(N2CCOC[C@H]3[C@H](F)[C@H]32)c2cnc(-c3cc(N)cc4ccc(F)c(C#C)c34)c(C)c2n1)[C@@]12CCCN1CC(=C)C2` [Example 436, 5-Ethynyl-6-fluoro-4-(4-((1S,7S,8S)-8-fluoro-5-oxa-2-azabicyclo[5.1.0]octan-2-yl)-8-methyl-2-(((S)-2-methylenetetrahydro-1H-pyrrolizin-7a(5H)-yl)methoxy-d2)pyrido[4,3-d]pyrimidin-7-yl)naphthalen-2-amine], for which the IC50 under setting [2] was < 50 nM. For `C#Cc1c(F)ccc2cc(N)cc(-c3ncc4c(N5CCOC[C@H]6[C@H](F)[C@H]65)nc(OC[C@]56CC(=C(F)F)CN5CCC65CC5)nc4c3C)c12` [Example 437, 4-(2-(((R)-6′-(difluoromethylene)tetrahydrospiro [cyclopropane-1,1′-pyrrolizin]-7a′(5′H)-yl)methoxy)-4-((1S,7S,8S)-8-fluoro-5-oxa-2-azabicyclo[5.1.0]octan-2-yl)-8-methylpyrido[4,3-d]pyrimidin-7-yl)-5-ethynyl-6-fluoronaphthalen-2-amine], the IC50 under setting [2] is < 50 nM.

Take `[2H]C([2H])(Oc1nc(N2CCOC[C@H]3[C@H](F)[C@H]32)c2cnc(-c3cc(N)cc4ccc(F)c(C#C)c34)c(C)c2n1)[C@]12CC(=C)CN1CCC21CC1` [Example 442, 5-Ethynyl-6-fluoro-4-(4-((1S,7S,8S)-8-fluoro-5-oxa-2-azabicyclo[5.1.0]octan-2-yl)-8-methyl-2-(((R)-6′-methylenetetrahydrospiro[cyclopropane-1,1′-pyrrolizin]-7a′(5′H)-yl)methoxy-d2)pyrido[4,3-d]pyrimidin-7-yl)naphthalen-2-amine]: the IC50 under setting [2] was < 50 nM.
